Experimental data as given in ChEMBL document CHEMBL1201862, “PubChem BioAssay data set” (2004).
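96-well plates; 48 h exposure; 5 concentrations. Endpoints by linear interpolation between flanking doses. Not reached: highest tested concentration assigned. GI50 marks 50% less growth.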 Activity calls are given as the source filed them. Rule as the data show it: active = GI50 up to about 1.1 µM and inactive = higher. Where a SMILES comes first, the peptide text is derived from it. The star is where a group is joined. Cbz = O=C(OCc1ccccc1)*

Legend:
Test in all cases: inhibition of tumour cell growth, NCI panel, 48 h
786-0 = tested on: 786-0
CCRF-CEM = tested on: CCRF-CEM
COLO 205 = tested on: COLO 205
EKVX = tested on: EKVX
HCC 2998 = tested on: HCC 2998
HOP-62 = tested on: HOP-62
HT-29 = tested on: HT-29
K562 = tested on: K562
LOX IMVI = tested on: LOX IMVI
MDA-N = tested on: MDA-N
NCI-H226 = tested on: NCI-H226
NCI/ADR-RES = tested on: NCI/ADR-RES
RXF 393 = tested on: RXF 393
SF-268 = tested on: SF-268
SF-539 = tested on: SF-539
SK-MEL-28 = tested on: SK-MEL-28
SN12C = tested on: SN12C
SR = tested on: SR
SW-620 = tested on: SW-620
NCI-H522 = tested on: NCI-H522

Structure (SMILES) | GI50 (786-0) | GI50 (CCRF-CEM) | GI50 (COLO 205) | GI50 (EKVX) | GI50 (HCC 2998) | GI50 (HOP-62) | GI50 (HT-29) | GI50 (K562) | GI50 (LOX IMVI) | GI50 (MDA-N) | GI50 (NCI-H226) | GI50 (NCI/ADR-RES) | GI50 (RXF 393) | GI50 (SF-268) | GI50 (SF-539) | GI50 (SK-MEL-28) | GI50 (SN12C) | GI50 (SR) | GI50 (SW-620) | GI50 (NCI-H522)
COc1ccc(C2C3=C(COC3=O)Oc3cc4c(cc32)OCO4)c(OC)c1 (stereo not drawn) | 21.7 µM (inactive) | 11.1 µM (inactive) | 7 µM (inactive) | 48.5 µM (inactive) | 20.8 µM (inactive) | 30.3 µM (inactive) | 6.65 µM (inactive) | 4.3 µM (inactive) | 4.31 µM (inactive) | 2.09 µM (inactive) | 31.8 µM (inactive) | 10 µM (inactive) | 16.1 µM (inactive) | 34 µM (inactive) | 12.6 µM (inactive) | 23 µM (inactive) | 6.75 µM (inactive) | 4.99 µM (inactive) | 5.81 µM (inactive) | 
COc1cc(COC(=O)N2CC=CC2C(=O)O)c([N+](=O)[O-])cc1OC (stereo not drawn) | > 100 µM (inactive) | > 100 µM (inactive) | > 100 µM (inactive) | > 100 µM (inactive) | > 100 µM (inactive) | > 100 µM (inactive) | > 100 µM (inactive) | > 100 µM (inactive) |  | > 100 µM (inactive) | > 100 µM (inactive) | > 100 µM (inactive) | > 100 µM (inactive) | > 100 µM (inactive) | > 100 µM (inactive) | > 100 µM (inactive) | > 100 µM (inactive) | > 100 µM (inactive) | > 100 µM (inactive) | 
N#CCSc1c(-c2ccccc2)c(=O)n(-c2ccccc2)c(=S)n1-c1ccccc1 | > 100 µM (inactive) | 96.8 µM (inactive) | > 100 µM (inactive) | > 100 µM (inactive) |  | > 100 µM (inactive) | > 100 µM (inactive) | > 100 µM (inactive) | > 100 µM (inactive) | 95.3 µM (inactive) | > 100 µM (inactive) | > 100 µM (inactive) |  | > 100 µM (inactive) |  | > 100 µM (inactive) | > 100 µM (inactive) | > 100 µM (inactive) | > 100 µM (inactive) | > 100 µM (inactive)
CCOC(=O)CCC(NC(=O)CNC(=O)CNC(=O)C(CCC(=O)OCC)NC(=O)C(CCC(=O)OCC)NC(=O)C(CCC(=O)OCC)NC(=O)OCc1ccccc1)C(=O)NC(CCC(=O)OCC)C(=O)NC(CCC(=O)OCC)C(=O)OCC (stereo not drawn) (Cbz-E(OEt)E(OEt)E(OEt)GGE(OEt)E(OEt)E(OEt)-OEt; configuration not given here) | > 75 µM (inactive) | > 75 µM (inactive) | > 75 µM (inactive) | > 75 µM (inactive) |  |  | > 75 µM (inactive) |  | > 75 µM (inactive) | > 75 µM (inactive) |  | > 75 µM (inactive) | > 75 µM (inactive) | > 75 µM (inactive) |  | > 75 µM (inactive) | > 75 µM (inactive) | > 75 µM (inactive) | > 75 µM (inactive) | > 75 µM (inactive)
N#CC(=S)Nc1ccc(Cl)c(Cl)c1 | 35.7 µM (inactive) | 10 µM (inactive) | 20.6 µM (inactive) | 22.9 µM (inactive) | 18.7 µM (inactive) | 44 µM (inactive) | 21.1 µM (inactive) | 11.7 µM (inactive) | 26.6 µM (inactive) | 32.7 µM (inactive) | 22.4 µM (inactive) | 26.3 µM (inactive) | 25.4 µM (inactive) | 37.4 µM (inactive) | 20.7 µM (inactive) | 30.3 µM (inactive) | 30.5 µM (inactive) | 21.7 µM (inactive) | 27 µM (inactive) | 
CSc1nc(Br)nc2c1ncn2C1CC(Oc2ccc(C)cc2)C(COc2ccc(C)cc2)O1 (stereo not drawn) | > 100 µM (inactive) | > 100 µM (inactive) | > 100 µM (inactive) | > 100 µM (inactive) | > 100 µM (inactive) | > 100 µM (inactive) | > 100 µM (inactive) |  | > 100 µM (inactive) | > 100 µM (inactive) | > 100 µM (inactive) | > 100 µM (inactive) |  | > 100 µM (inactive) | > 100 µM (inactive) | > 100 µM (inactive) | > 100 µM (inactive) |  | > 100 µM (inactive) | > 100 µM (inactive)
CC1=CP(=O)(c2c(C(C)C)cc(C(C)C)cc2C(C)C)CCC1Cl (stereo not drawn) | 18.1 µM (inactive) | 14.1 µM (inactive) | 14.9 µM (inactive) | 16 µM (inactive) |  | 17 µM (inactive) | 16.4 µM (inactive) | 10.2 µM (inactive) | 18.8 µM (inactive) | 21.7 µM (inactive) | 19.1 µM (inactive) | 15 µM (inactive) | 14.7 µM (inactive) | 16.3 µM (inactive) | 17.1 µM (inactive) | 18.6 µM (inactive) | 17.7 µM (inactive) | 0.769 µM (active) | 21.6 µM (inactive) | 14.1 µM (inactive)
OCC(O)C(O)C(O)C(O)c1nc2cc(Cl)ccc2[nH]1 (stereo not drawn) | > 100 µM (inactive) | > 100 µM (inactive) | > 100 µM (inactive) | > 100 µM (inactive) | > 100 µM (inactive) | 90.4 µM (inactive) | > 100 µM (inactive) | > 100 µM (inactive) | > 100 µM (inactive) | > 100 µM (inactive) | 26.2 µM (inactive) | > 100 µM (inactive) | > 100 µM (inactive) | > 100 µM (inactive) | > 100 µM (inactive) | > 100 µM (inactive) | > 100 µM (inactive) |  | > 100 µM (inactive) | > 100 µM (inactive)
